Measurements taken from the supplement of paper PMC11451515.

Test system: SEM cells
Test: cell viability relative to DMSO control; higher = less cytotoxic
Settings: 48 h
Method in brief: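 Library compounds in DMSO were pin-dosed into 1536-well plates (5 μl) holding NOMO1 or SEM (500 cells/well) or P12-Ichikawa (1000 cells/well) leukemia cells, across an 11-point threefold series of 47 μM to 0.79 nM. Each cell line had been adapted for at least four passages in each medium. CellTiter-Glo One luminescence was read after 48 h at 37°C. Viability is the per-plate percentage relative to DMSO wells, with cell-free wells as background.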

[1] = HPLM + 10% dialyzed FBS, 0.000781 µM
[2] = HPLM + 10% dialyzed FBS, 0.00234 µM
[3] = HPLM + 10% dialyzed FBS, 0.00702 µM
[4] = HPLM + 10% dialyzed FBS, 0.0211 µM
[5] = HPLM + 10% dialyzed FBS, 0.0632 µM
[6] = HPLM + 10% dialyzed FBS, 0.19 µM
[7] = HPLM + 10% dialyzed FBS, 0.569 µM
[8] = HPLM + 10% dialyzed FBS, 1.71 µM
[9] = HPLM + 10% dialyzed FBS, 5.12 µM
[10] = HPLM + 10% dialyzed FBS, 15.4 µM
[11] = HPLM + 10% dialyzed FBS, 46.1 µM
[12] = RPMI 5 mM glucose + 10% FBS, 0.000781 µM
[13] = RPMI 5 mM glucose + 10% FBS, 0.00234 µM
[14] = RPMI 5 mM glucose + 10% FBS, 0.00702 µM
[15] = RPMI 5 mM glucose + 10% FBS, 0.0211 µM
[16] = RPMI 5 mM glucose + 10% FBS, 0.0632 µM
[17] = RPMI 5 mM glucose + 10% FBS, 0.19 µM
[18] = RPMI 5 mM glucose + 10% FBS, 0.569 µM
[19] = RPMI 5 mM glucose + 10% FBS, 1.71 µM
[20] = RPMI 5 mM glucose + 10% FBS, 5.12 µM
[21] = RPMI 5 mM glucose + 10% FBS, 15.4 µM
[22] = RPMI 5 mM glucose + 10% FBS, 46.1 µM
[23] = RPMI 5 mM glucose + 10% dialyzed FBS, 0.000781 µM
[24] = RPMI 5 mM glucose + 10% dialyzed FBS, 0.00234 µM
[25] = RPMI 5 mM glucose + 10% dialyzed FBS, 0.00702 µM
[26] = RPMI 5 mM glucose + 10% dialyzed FBS, 0.0211 µM
[27] = RPMI 5 mM glucose + 10% dialyzed FBS, 0.0632 µM
[28] = RPMI 5 mM glucose + 10% dialyzed FBS, 0.19 µM
[29] = RPMI 5 mM glucose + 10% dialyzed FBS, 0.569 µM
[30] = RPMI 5 mM glucose + 10% dialyzed FBS, 1.71 µM
[31] = RPMI 5 mM glucose + 10% dialyzed FBS, 5.12 µM
[32] = RPMI 5 mM glucose + 10% dialyzed FBS, 15.4 µM
[33] = RPMI 5 mM glucose + 10% dialyzed FBS, 46.1 µM

SMILES	cell viability [1]	cell viability [2]	cell viability [3]	cell viability [4]	cell viability [5]	cell viability [6]	cell viability [7]	cell viability [8]	cell viability [9]	cell viability [10]	cell viability [11]	cell viability [12]	cell viability [13]	cell viability [14]	cell viability [15]	cell viability [16]	cell viability [17]	cell viability [18]	cell viability [19]	cell viability [20]	cell viability [21]	cell viability [22]	cell viability [23]	cell viability [24]	cell viability [25]	cell viability [26]	cell viability [27]	cell viability [28]	cell viability [29]	cell viability [30]	cell viability [31]	cell viability [32]	cell viability [33]
CNC(=O)c1ccccc1Sc1ccc2c(/C=C/c3ccccn3)n[nH]c2c1	119%	109%	119%	116%	120%	118%	114%	115%	73.4%	33.5%	30.5%																						
O=C(/C=C/c1cccnc1)NCCCCC1CCN(C(=O)c2ccccc2)CC1	76.5%	86.3%	22.7%	9.57%	7.6%	6.37%	6.62%	6.08%	6.74%	6.78%	5.79%	103%	65.1%	14.8%	7.35%	21.9%	5.86%	6.67%	6.71%	5.95%	5.65%	3.92%	105%	32%	13.8%	7.49%	7.08%	6.77%	6.47%	6.21%	6.4%	7.09%	4.78%
O=C(O)c1nn(Cc2ccc(Cl)cc2Cl)c2ccccc12	93.5%	90.1%	95.5%	96.3%	86.5%	54.8%	68.7%	92.3%	84.7%	76.2%	54.7%	124%	123%	132%	130%	93.3%	83.6%	86.2%	135%	95.2%	94.7%	81%	96.1%	89.9%	89.1%	77.2%	76.3%	46.9%	69%	97.5%	70.1%	92.7%	59.6%
CCNC(=O)c1noc(-c2cc(C(C)C)c(O)cc2O)c1-c1ccc(CN2CCOCC2)cc1	90.6%	97.5%	92.4%	103%	31.8%	21.1%	20.2%	20.9%	19.6%	17.3%	14.2%	95.2%	102%	102%	102%	27.1%	21.6%	19.8%	19.6%	19.4%	14.1%	7.66%	101%	95.7%	89.5%	99.5%	36.1%	24.9%	26.4%	22.6%	18.6%	19.2%	11.2%
